Experimental findings from ChEMBL document CHEMBL1201862, “PubChem BioAssay data set” (2004) are described below.

The source made the active and inactive calls.

A short description of assay [1]: Luminescence Cell-Based Dose Confirmation HTS to Identify Inhibitors of Platelet Dense Granule Release. [Related pubchem assays: 1663 (Primary HTS), 1678 (Summary of Project)]. Type of assay: functional.
In assay [2] the target is T1, Luciferin 4-monooxygenase (Photinus pyralis, UniProt P08659). Nature of the assay: inhibition of purified Photinus pyralis luciferase – biochemical, luminescence, dose response (AID 1891).
For assay [3], the target named is Eukaryotic translation initiation factor 4H (Homo sapiens, UniProt Q15056). Briefly: eIF4H binding inhibition – biochemical, uHTS, fluorescence polarization, translation initiation inhibitor project, primary screen (AID 2012).
For assay [4], the target named is Polyadenylate-binding protein 1 (Homo sapiens, UniProt P11940). Briefly: blockers of PABP interaction with poly(A) – biochemical, fluorescence polarization, […] (AID 2014).
For assay [5], the target named is Melanin-concentrating hormone receptor 1 (Homo sapiens, UniProt Q99705). Briefly: Fluorescence-based counterscreen for antagonists of the G-protein coupled receptor 7 (GPR7): cell-based high throughput dose response assay to identify antagonists of the melanin-concentrating hormone receptor 1 (MCHR1). The class given is functional.
The target in assay [6] is Neuropeptides B/W receptor type 1 (Homo sapiens, UniProt P48145). Briefly: Fluorescence-based dose response cell-based high throughput screening assay to identify antagonists of the G-protein coupled receptor 7 (GPR7). [Related pubchem assays: 1952 (Screening assay (GPR7 antagonists).), 1880 (Summary AID.)]. The class given is functional.
In assay [7] the target is T2, Scavenger receptor class B member 1 (Mus musculus, UniProt Q61009).
T2 sequence (Q61009 whole entry): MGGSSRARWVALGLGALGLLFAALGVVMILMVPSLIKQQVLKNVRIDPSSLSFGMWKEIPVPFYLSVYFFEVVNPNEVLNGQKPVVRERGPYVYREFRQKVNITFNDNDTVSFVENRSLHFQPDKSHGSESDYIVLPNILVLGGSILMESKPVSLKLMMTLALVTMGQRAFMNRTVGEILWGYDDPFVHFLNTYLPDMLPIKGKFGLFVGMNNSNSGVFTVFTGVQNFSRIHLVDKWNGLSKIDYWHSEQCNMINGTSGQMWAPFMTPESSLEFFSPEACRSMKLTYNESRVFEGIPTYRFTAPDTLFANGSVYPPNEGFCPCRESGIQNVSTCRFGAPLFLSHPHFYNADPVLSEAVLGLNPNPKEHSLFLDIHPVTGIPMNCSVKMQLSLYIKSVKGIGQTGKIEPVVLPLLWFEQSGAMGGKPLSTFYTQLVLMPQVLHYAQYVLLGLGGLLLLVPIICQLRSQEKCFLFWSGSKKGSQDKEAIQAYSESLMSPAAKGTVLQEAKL
Nature of the assay: mouse SR-BI DiI-HDL uptake blockers – ldlA[mSR-BI] cells, fluorescence, cherry pick, dose response (AID 493194).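 Further: cellular uptake of fluorescent DiI-labeled HDL measured as cell fluorescence.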 The class given is functional, cell-based.

In assay [8] the target is Sphingosine 1-phosphate receptor 3 (Homo sapiens, UniProt Q99500). Nature of the assay: Dose response cell-based high throughput screening assay for antagonists of the Sphingosine 1-Phosphate Receptor 3 (S1P3). [Related pubchem assays: 1429, 485 ]. Type of assay: functional.
Assay [9] addresses 5-hydroxytryptamine receptor 1E (Homo sapiens, UniProt P28566). Nature of the assay: Counterscreen assay for S1P3 antagonists: Dose response cell-based high throughput screening assay to identify antagonists of the 5-Hydroxytryptamine Receptor Subtype 1E (5HT1E). [Related pubchem assays: 1429, 485 ]. Type of assay: functional.
Assay [10] addresses Neuropeptide Y receptor type 1 (Homo sapiens, UniProt P25929). Nature of the assay: Fluorescence-based counterscreen for agonists of NPY-Y2: cell-based high-throughput dose response assay for agonists of NPY-Y1. Type of assay: functional.
The subject of assay [11] is HEK293. Nature of the assay: Fluorescence-based counterscreen for potentiators or agonists of NPY-Y2: cell-based high-throughput dose response assay to identify inhibitors of cyclic nucleotide gated ion channel (CNGC) activity. In this assay, the parental HEK293 cell line transfected with a cyclic-nucleotide gated ion channel (CNGC)-based cAMP sensor is used to measure inhibition of isoproterenol-induced CNGC activity by test compound. The class given is functional. The note with it: Homo sapiens.

Assay [12] addresses Neuropeptide Y receptor type 2 (Homo sapiens, UniProt P49146). Briefly: Fluorescence-based cell-based high-throughput dose response assay for agonists of NPY-Y2. [Related pubchem assays: 1703 (Screening assay (CNGC inhibitors).), 1359 (Screening assay (NPY-Y2 potentiators or agonists).), 1304 (Screening assay (NPY-Y1 potentiators or agonists).), 1710 (Screening assay (NPY-Y2 agonists).), 1791 (Summary AID.)]. The class given is functional.

The target of a further assay is Procathepsin L (Homo sapiens, UniProt P07711).
Another assay addresses T3, Aspartyl aminopeptidase (Plasmodium falciparum 3D7, UniProt Q8I2J3).
T3 sequence (Q8I2J3 whole entry): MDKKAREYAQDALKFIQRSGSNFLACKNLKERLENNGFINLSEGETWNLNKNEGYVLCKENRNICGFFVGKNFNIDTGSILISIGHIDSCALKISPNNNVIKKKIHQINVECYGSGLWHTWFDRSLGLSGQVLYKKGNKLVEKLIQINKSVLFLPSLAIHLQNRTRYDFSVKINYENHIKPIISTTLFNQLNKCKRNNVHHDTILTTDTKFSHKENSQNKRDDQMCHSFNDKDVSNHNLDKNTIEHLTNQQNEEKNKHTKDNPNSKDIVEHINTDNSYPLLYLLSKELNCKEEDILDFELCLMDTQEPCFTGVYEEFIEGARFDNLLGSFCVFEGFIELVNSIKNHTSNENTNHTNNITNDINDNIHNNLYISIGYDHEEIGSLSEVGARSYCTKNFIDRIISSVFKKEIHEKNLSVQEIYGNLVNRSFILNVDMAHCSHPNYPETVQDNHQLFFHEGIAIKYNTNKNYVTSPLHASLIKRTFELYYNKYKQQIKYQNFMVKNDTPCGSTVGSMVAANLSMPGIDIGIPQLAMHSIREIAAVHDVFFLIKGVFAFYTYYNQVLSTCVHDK

Assay [13] has as its system HEK293. Briefly: PMA/Ionomycin-induced IL-8 production in HEK293- NF-kB-Luc stable cells. [Related pubchem assays: 1299, 1295, 1375, 1287, 1281, 1293, 1291, 1289, 1280, 465, 1364, 1282, 1372, 1365, 1367, 1366, 1266, 1269, 1373, 1292, 1290, 1302, 1371, 1283, 1271, 1294, 1374, 1368, 1369 ]. The class given is functional, cell-based. The note with it: Homo sapiens.
Assay [14] deals with HEK293. Briefly: TNF Induced NF-kB Luciferase in 293-NF-kB-Luc Stable Cells. [Related pubchem assays: 1266, 1299, 1269, 1373, 1292, 1290, 1302, 1371, 1283, 1270, 1295, 1271, 1375, 1294, 1374, 1281, 1293, 1291, 1289, 1280, 465, 1368, 1364, 1282, 1372, 1365, 1369, 1370, 1367, 1366 ]. The class given is functional, cell-based. The note with it: Homo sapiens.
In assay [15] the test system is HEK293. Nature of the assay: PMA/Ionomycin induced NF-kB luciferase assay in 293- NF-kB-Luc stable cells. [Related pubchem assays: 1299, 1270, 1295, 1375, 1287, 1281, 1293, 1291, 1289, 1280, 465, 1364, 1282, 1372, 1365, 1370, 1367, 1366, 1269, 1373, 1292, 1290, 1302, 1371, 1283, 1271, 1294, 1374, 1368, 1369 ]. The class given is functional, cell-based. The note with it: Homo sapiens.

Assay [16] deals with T1, Luciferin 4-monooxygenase. Nature of the assay: In vitro luciferase assay using purified luciferase. [Related pubchem assays: 1299, 1270, 1295, 1375, 1287, 1281, 1293, 1291, 1289, 1280, 465, 1364, 1282, 1372, 1365, 1370, 1367, 1366, 1266, 1373, 1292, 1290, 1302, 1371, 1283, 1271, 1294, 1374, 1368, 1369 ].
Assay [17] has as its system HEK293. Nature of the assay: Cytotoxicity assay in HEK293 cells. [Related pubchem assays (depositor defined):AID1266, AID1269, AID1270, AID1271, AID1280, AID1281, AID1282, AID1283, AID1287, AID1289, AID1290, AID1291, AID1292, AID1293, AID1294, AID1295, AID1299, AID1302, AID1364, AID1365, AID1366, AID1367, AID1369, AID1370, AID1371, AID1372, AID1373, AID1374, AID1375, AID1384 …. Type of assay: functional, cell-based. Particulars: Homo sapiens.

T1 sequence (P08659 whole entry): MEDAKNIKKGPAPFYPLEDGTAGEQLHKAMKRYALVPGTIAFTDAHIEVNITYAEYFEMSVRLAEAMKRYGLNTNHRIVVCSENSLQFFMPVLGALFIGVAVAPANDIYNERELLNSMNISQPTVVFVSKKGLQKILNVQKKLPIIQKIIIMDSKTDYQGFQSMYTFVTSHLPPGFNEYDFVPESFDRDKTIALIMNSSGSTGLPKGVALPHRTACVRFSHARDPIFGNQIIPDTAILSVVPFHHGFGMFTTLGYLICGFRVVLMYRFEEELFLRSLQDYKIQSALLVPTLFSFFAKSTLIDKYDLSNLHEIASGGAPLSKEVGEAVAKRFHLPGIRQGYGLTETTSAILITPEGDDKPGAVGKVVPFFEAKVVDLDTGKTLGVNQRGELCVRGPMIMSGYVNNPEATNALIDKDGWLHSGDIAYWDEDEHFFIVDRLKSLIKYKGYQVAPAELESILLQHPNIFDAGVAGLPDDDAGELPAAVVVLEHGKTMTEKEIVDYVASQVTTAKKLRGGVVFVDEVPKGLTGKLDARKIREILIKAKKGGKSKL
Procathepsin L, sequence (P07711 whole entry): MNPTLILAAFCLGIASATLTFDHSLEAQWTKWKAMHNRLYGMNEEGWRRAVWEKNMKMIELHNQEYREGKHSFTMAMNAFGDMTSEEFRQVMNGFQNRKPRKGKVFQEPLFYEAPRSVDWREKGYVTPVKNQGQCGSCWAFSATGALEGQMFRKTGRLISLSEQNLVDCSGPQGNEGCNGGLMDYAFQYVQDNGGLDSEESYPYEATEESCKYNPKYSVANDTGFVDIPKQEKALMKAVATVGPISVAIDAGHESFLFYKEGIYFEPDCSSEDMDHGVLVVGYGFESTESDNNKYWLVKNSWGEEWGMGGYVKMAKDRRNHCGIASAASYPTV
Neuropeptide Y receptor type 2, sequence (P49146 whole entry): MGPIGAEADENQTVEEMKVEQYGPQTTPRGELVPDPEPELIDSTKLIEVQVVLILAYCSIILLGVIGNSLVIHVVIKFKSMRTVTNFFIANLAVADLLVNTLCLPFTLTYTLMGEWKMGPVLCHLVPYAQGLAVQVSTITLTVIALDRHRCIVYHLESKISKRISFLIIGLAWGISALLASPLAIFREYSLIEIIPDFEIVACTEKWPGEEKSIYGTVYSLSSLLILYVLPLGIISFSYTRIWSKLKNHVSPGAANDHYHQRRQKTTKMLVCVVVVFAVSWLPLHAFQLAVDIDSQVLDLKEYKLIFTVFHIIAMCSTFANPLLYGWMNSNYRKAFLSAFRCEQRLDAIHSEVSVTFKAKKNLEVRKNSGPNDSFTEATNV
Sphingosine 1-phosphate receptor 3, sequence (Q99500 whole entry): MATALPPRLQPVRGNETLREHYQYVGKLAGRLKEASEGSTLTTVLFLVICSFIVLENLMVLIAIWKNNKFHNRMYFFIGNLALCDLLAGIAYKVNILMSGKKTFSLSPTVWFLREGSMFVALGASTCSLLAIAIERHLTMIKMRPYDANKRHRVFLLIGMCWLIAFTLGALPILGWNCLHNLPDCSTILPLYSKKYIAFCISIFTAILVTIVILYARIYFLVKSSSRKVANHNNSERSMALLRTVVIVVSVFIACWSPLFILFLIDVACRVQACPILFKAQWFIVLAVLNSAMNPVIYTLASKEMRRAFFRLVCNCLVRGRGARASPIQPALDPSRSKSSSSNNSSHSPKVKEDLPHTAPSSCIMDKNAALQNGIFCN
5-hydroxytryptamine receptor 1E, sequence (P28566 whole entry): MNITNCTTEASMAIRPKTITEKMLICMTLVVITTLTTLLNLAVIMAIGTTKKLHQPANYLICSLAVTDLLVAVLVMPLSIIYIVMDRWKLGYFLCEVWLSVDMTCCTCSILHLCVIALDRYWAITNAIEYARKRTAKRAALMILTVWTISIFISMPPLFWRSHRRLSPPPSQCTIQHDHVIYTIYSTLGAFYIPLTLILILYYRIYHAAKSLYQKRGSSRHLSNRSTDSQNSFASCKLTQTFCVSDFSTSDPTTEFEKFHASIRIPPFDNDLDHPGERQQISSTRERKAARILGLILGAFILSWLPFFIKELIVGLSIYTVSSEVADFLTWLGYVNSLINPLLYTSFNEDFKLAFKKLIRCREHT
Neuropeptides B/W receptor type 1, sequence (P48145 whole entry): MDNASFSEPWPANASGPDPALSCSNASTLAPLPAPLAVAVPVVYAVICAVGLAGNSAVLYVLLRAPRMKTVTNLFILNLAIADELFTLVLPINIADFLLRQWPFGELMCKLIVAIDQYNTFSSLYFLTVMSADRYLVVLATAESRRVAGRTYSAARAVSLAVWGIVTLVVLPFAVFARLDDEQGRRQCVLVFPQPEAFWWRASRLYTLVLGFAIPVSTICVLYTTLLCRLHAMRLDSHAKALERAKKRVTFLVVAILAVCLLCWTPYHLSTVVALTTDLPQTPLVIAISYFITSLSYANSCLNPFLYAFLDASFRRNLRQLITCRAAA
Neuropeptide Y receptor type 1, sequence (P25929 whole entry): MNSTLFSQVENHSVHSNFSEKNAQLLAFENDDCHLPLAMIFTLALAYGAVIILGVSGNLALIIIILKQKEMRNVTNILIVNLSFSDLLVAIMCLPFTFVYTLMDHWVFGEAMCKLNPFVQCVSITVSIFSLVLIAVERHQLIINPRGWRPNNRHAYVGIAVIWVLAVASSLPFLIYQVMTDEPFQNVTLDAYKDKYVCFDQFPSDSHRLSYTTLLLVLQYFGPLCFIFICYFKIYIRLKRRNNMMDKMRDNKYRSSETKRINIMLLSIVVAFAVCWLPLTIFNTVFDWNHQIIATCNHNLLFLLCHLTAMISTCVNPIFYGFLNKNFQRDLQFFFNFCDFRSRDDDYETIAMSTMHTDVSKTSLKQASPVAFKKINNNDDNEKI
Polyadenylate-binding protein 1, sequence (P11940 whole entry): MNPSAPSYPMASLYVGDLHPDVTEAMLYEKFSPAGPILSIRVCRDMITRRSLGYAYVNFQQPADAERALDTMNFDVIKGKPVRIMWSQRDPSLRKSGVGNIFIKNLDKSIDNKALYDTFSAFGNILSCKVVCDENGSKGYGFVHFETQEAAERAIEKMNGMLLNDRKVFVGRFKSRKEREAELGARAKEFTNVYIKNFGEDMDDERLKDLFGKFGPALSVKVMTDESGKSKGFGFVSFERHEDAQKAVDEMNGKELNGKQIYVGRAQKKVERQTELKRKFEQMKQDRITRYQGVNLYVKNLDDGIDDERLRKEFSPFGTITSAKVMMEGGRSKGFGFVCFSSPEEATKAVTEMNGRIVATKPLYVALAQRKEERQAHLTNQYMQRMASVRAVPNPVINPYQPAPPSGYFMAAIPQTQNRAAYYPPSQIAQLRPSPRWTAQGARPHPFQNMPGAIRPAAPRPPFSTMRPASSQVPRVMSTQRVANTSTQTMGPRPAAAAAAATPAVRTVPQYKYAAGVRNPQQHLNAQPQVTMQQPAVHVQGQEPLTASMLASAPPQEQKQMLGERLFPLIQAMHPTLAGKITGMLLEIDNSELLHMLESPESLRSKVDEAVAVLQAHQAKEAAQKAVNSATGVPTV
Melanin-concentrating hormone receptor 1, sequence (Q99705 whole entry): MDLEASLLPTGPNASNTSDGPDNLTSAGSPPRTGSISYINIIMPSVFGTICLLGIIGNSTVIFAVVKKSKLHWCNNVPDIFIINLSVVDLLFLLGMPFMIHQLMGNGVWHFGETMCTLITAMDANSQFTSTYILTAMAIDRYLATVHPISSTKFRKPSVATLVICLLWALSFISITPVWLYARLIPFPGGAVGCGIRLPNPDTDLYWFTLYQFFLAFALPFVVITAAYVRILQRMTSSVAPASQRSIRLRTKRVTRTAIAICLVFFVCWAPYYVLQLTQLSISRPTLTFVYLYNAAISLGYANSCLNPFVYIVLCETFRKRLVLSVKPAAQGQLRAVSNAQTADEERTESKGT

With `CC(=O)c1cccc(NC(=O)CCc2nnc3ccc(NCc4ccco4)nn23)c1`, the EC50 in assay [1] and in assay [2] was > 112 µM (not active) each time. In addition, the IC50 was 12 µM (active) in assay [3] and 77 µM (active) in assay [4].

`CCOC(=O)c1c[nH]nc1N=C(S)Nc1ccc(OC)cc1`: the IC50 is > 14.6 µM (not active) in [5] and > 43.8 µM (not active) in [6].

With `CCOc1ccc(CCNC(=O)C2CC(=O)N(c3ccccc3OCC)C2)cc1OCC` (centres undefined), in assay [7], the AC50 was 17.3 µM (active).

For `C=CCN1CCN(C(c2ccc(Cl)cc2)c2nnnn2CCc2ccc(OC)c(OC)c2)CC1` (centres undefined), the IC50 in assay [8] and in assay [9] was > 50 µM (not active) in each case.

Regarding `COc1ccc(COC(=O)c2ccc3c(=O)n4c(nc3c2)CCC4)cc1F`, the EC50 (in [10]; in the assay with HEK293 [11]; in assay [12]) was > 35.4 µM (not active) in each case.

With `Cc1cccc(N=C(S)Nn2cnnc2)c1C`, the results for the IC50 at Procathepsin L and at Aspartyl aminopeptidase were > 59.6 µM (not active) and 1.9 µM (active), respectively.

As for `CCOc1ccc(N(CC(=O)Nc2ccccc2Br)S(C)(=O)=O)cc1`, the EC50 in the assay with HEK293 [13] is 8.11 µM (not active); in the assay on HEK293 [14], > 8 µM (not active); in the assay on HEK293 [15], 2.78 µM (active); in assay [16], > 8 µM (not active); with HEK293 [17] it was 15.5 µM (inactive).
